Test results reported in patent US20240217977A1, “DIAZEPANONE-FUSED PYRIMIDINE COMPOUNDS, COMPOSITIONS AND MEDICINAL APPLICATIONS THEREOF” (Blueprint Medicines Corporation, priority 2021, published 2024).

What was measured:
Type in all cases: cell-based
[1] = target: HER2 (A775_G775insYVMA) expressing Ba/F3 stable cell line (Homo sapiens, UniProt P04626, DUP772-775, cells depend on it); experiment: Cellular proliferation (Alamar Blue) assay, HER2 (A775_G775insYVMA) Ba/F3; conditions: 72 hr incubation, read-out: YVMA IC50
Chain of HER2 (A775_G775insYVMA) expressing Ba/F3 stable cell line (P04626 with tags, fused parts or gaps DUP772-775): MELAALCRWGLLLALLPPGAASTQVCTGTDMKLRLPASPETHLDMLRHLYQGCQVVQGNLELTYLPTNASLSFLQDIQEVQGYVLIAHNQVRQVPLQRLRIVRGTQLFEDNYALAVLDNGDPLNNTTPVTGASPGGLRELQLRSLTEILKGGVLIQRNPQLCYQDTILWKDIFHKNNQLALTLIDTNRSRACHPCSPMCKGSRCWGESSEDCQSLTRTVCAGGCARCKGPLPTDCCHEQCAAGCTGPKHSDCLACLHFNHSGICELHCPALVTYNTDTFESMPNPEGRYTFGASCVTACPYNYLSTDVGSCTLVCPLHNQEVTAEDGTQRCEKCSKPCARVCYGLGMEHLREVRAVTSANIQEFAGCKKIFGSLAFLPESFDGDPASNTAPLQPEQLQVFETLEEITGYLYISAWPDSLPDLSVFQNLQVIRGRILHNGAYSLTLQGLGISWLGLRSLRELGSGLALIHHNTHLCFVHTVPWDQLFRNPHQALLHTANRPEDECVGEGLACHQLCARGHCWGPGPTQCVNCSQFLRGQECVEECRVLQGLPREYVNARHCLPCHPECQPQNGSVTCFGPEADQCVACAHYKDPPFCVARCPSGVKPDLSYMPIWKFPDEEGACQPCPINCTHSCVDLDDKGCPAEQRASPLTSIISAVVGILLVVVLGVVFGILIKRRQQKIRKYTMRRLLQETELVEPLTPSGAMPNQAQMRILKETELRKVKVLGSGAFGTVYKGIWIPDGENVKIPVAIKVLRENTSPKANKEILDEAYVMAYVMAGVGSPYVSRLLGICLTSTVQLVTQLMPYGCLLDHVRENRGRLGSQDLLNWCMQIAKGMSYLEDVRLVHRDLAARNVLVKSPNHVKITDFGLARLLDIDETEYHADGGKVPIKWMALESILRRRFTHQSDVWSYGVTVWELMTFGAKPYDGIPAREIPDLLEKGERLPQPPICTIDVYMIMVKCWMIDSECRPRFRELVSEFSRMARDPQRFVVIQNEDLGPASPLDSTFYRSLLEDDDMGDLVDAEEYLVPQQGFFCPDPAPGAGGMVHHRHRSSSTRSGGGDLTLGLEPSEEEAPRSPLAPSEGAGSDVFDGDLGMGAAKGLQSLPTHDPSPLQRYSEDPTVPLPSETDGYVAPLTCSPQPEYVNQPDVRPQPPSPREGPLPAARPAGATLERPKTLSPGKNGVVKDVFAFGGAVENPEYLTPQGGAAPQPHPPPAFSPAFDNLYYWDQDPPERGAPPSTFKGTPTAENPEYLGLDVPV
Method: (§1) Example 2: Cellular Proliferation (Alamar Blue) Assays
(§2) • 1. EGFR(D770_N771insSVD) expressing Ba/F3 stable cell line • 2. EGFR (A767_dupASV) expressing Ba/F3 stable cell line • 3. A431 cells • 4. EGFR (H773insNPH) expressing Ba/F3 stable cell line • 5. HER2 (A775_G775insYVMA) expressing Ba/F3 stable cell line
(§3) • 1. Seed cells at 5000 for A431 and 15,000 cells for Ba/F3 in 100 μL/well in complete media (for A431: DMEM with 10% FBS and for Ba/F3 cells: RPMI with 10% FBS) in • 96-well tissue culture plate. Leave outer wells without cells for background measurements. Incubate at 37 degree Celsius in 5% C02 humidified incubator for 16-18 hours. • 2. Add 0.025 ml of 5× concentration compound dilution or DMSO control. Final compound concentration range is 10-0.0005 μM prepared in 3-fold serial dilutions. Incubate for 72 hr at 37 degree Celsius in 5% CO2 humidified incubator. • 3. Add 0.0125 ml Alamar Blue™ reagent to each well with multi-channel pipette and tap gently on each side of the plate to mix. Incubate for 3 hours at 37 degree Celsius in 5% CO2 humidified incubator. • 4. Read plates on fluorescence reader (Tecan Spark Control, Device: Spark, Serial #: 1801006040) at 540 nm excitation, 590 nm emission wavelength. • 5. Data analysis was performed using XLfit 5.5.0.5.

A431 cells = experiment: Cellular proliferation (Alamar Blue) assay, A431 cells; conditions: Homo sapiens, A-431, 72 hr incubation
Method: as §1, §2, §3

[2] = target: EGFR (A767_dupASV) expressing Ba/F3 stable cell line (Homo sapiens, UniProt P00533, DUP767-769, cells depend on it); experiment: Cellular proliferation (Alamar Blue) assay, EGFR (A767_dupASV) Ba/F3; conditions: 72 hr incubation, read-out: A767 IC50
Chain of EGFR (A767_dupASV) expressing Ba/F3 stable cell line (P00533 with tags, fused parts or gaps DUP767-769): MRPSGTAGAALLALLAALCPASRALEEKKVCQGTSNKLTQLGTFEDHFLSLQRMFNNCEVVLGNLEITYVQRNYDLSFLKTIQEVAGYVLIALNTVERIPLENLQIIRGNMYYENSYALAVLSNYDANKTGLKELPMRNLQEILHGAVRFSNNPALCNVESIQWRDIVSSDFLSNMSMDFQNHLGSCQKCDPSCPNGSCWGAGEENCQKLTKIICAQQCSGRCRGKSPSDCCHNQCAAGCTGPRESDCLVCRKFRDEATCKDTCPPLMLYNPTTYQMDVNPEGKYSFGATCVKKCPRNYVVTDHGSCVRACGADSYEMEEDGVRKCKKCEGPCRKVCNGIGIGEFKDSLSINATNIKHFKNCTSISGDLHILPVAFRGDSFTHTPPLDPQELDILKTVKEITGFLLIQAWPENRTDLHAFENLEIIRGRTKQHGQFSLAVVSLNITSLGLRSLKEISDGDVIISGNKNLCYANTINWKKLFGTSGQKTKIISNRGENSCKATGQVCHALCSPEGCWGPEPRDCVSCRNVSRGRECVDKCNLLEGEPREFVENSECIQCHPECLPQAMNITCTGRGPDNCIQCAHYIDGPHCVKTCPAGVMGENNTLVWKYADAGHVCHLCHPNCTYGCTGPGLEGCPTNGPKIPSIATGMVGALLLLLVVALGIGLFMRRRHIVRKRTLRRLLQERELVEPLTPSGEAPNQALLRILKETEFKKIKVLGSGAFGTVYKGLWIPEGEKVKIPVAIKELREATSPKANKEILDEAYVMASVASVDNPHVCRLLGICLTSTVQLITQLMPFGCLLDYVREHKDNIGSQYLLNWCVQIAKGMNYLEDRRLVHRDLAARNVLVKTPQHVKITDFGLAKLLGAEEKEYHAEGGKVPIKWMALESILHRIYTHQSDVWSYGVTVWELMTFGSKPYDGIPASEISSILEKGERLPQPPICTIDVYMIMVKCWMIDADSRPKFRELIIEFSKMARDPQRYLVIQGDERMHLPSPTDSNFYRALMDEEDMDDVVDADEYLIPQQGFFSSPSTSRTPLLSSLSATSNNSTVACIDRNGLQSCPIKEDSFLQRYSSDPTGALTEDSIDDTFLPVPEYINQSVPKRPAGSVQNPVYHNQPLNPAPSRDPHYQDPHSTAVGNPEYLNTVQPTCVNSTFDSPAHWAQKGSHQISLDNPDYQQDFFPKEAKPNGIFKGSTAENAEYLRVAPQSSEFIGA
Method: as §1, §2, §3

[3] = target: EGFR (H773insNPH) expressing Ba/F3 stable cell line (Homo sapiens, UniProt P00533, DUP771-773, cells depend on it); experiment: Cellular proliferation (Alamar Blue) assay, EGFR (H773insNPH) Ba/F3; conditions: 72 hr incubation, read-out: NPH IC50
Chain of EGFR (H773insNPH) expressing Ba/F3 stable cell line (P00533 with tags, fused parts or gaps DUP771-773): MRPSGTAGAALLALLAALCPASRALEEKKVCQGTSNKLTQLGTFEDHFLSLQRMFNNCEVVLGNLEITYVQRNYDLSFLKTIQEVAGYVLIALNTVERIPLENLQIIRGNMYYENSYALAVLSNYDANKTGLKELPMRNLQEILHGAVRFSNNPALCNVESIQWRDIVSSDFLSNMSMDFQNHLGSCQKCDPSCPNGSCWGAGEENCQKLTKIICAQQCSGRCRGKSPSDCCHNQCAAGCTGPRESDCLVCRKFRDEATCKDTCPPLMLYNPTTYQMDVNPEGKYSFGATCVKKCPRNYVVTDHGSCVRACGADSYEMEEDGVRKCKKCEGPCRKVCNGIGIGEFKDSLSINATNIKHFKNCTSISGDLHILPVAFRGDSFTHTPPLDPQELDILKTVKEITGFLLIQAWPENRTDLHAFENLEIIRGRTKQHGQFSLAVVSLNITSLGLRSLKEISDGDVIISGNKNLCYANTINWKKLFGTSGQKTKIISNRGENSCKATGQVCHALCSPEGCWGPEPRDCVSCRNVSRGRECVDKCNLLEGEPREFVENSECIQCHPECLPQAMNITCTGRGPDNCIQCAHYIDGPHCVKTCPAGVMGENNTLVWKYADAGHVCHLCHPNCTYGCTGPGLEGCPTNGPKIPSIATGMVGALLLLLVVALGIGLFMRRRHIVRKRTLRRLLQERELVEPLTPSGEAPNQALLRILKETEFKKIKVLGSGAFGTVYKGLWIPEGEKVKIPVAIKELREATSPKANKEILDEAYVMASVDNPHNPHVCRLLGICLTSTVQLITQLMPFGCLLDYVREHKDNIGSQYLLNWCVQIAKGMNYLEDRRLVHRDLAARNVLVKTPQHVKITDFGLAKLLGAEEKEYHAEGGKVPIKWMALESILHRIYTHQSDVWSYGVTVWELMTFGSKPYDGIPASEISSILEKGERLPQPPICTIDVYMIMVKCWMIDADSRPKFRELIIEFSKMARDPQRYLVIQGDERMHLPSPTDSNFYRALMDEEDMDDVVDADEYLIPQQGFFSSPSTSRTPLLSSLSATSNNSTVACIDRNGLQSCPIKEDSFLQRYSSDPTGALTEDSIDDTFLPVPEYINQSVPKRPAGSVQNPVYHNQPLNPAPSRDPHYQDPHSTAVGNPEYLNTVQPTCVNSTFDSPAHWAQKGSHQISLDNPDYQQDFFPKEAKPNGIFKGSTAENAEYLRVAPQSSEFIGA
Method: as §1, §2, §3

[4] = target: EGFR(D770_N771insSVD) expressing Ba/F3 stable cell line (Homo sapiens, UniProt P00533, DUP768-770, cells depend on it); experiment: Cellular proliferation (Alamar Blue) assay, EGFR(D770_N771insSVD) Ba/F3; conditions: 72 hr incubation, read-out: D770 IC50
Chain of EGFR(D770_N771insSVD) expressing Ba/F3 stable cell line (P00533 with tags, fused parts or gaps DUP768-770): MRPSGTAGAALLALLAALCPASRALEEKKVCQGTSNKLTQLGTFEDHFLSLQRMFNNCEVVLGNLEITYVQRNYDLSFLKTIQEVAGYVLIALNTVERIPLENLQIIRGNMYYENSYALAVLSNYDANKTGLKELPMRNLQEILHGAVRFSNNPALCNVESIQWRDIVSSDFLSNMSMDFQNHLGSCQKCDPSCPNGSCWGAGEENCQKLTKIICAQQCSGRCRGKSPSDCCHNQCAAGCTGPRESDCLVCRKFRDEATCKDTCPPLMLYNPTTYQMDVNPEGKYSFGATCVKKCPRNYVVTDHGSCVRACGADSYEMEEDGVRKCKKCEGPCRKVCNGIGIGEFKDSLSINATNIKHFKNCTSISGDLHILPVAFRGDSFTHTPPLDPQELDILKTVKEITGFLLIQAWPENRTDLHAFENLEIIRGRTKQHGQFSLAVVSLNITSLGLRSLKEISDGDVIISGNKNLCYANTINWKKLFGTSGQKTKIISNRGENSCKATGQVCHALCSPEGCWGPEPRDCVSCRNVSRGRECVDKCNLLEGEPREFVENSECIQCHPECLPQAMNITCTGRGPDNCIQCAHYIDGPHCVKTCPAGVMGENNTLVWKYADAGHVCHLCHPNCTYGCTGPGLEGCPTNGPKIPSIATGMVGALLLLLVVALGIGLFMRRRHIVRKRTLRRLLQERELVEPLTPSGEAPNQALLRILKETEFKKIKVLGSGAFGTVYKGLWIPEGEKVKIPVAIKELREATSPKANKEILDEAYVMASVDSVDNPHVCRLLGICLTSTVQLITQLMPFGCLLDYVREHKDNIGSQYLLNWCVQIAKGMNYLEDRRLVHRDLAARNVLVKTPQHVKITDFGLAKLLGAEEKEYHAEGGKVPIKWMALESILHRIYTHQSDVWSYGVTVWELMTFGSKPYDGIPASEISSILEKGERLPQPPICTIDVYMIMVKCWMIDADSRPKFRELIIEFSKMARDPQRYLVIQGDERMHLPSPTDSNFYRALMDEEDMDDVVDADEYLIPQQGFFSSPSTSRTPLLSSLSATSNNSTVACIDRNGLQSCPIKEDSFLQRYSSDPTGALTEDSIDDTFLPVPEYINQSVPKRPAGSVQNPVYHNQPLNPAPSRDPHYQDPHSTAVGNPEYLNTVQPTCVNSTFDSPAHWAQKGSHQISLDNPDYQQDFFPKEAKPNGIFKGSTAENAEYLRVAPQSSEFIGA
Method: as §1, §2, §3

Q: What does the source list for `C=CC(=O)Nc1cccc(N2C(=O)N(Cc3ccccc3)CCc3cnc(Nc4ccc(N5CCN(C)CC5)c(C)c4)nc32)c1` [Compound 22, N-(3-(7-benzyl-2-((3-methyl-4-(4-methylpiperazin-1-yl)phenyl)amino)-8-oxo-5,6,7,8-tetrahydro-9H-pyrimido[4,5-d][1,3]diazepin-9-yl)phenyl)acrylamide]?
A: GI50 [1]: 9 nM; IC50 (A431 cells): 25 nM; GI50 [2]: 33 nM; GI50 [3]: 41 nM; GI50 [4]: 31 nM

Q: `CN(C)C/C=C/C(=O)Nc1cccc(N2C(=O)N(c3ccccc3)CCc3cnc(Nc4cccnc4F)nc32)c1` [Compound 44, (E)-4-(dimethylamino)-N-(3-(2-((2-fluoropyridin-3-yl)amino)-8-oxo-7-phenyl-5,6,7,8-tetrahydro-9H-pyrimido[4,5-d][1,3]diazepin-9-yl)phenyl)but-2-enamide] was tested. Which GI50 [1] did it give?
A: 1230 nM

Q: What about the IC50 (A431 cells) of the same compound?
A: > 10000 nM

Q: What about the GI50 [2] of the same compound?
A: 936 nM

Q: What about the GI50 [4] of the same compound?
A: 1140 nM

Q: `C=CC(=O)Nc1cccc(N2C(=O)N(Cc3ccccc3)CCc3cnc(Nc4ccc(F)cc4OC)nc32)c1` [Compound 21, N-(3-(7-benzyl-2-((4-fluoro-2-methoxyphenyl)amino)-8-oxo-5,6,7,8-tetrahydro-9H-pyrimido[4,5-d][1,3]diazepin-9-yl)phenyl)acrylamide] was tested. Which GI50 [1] did it give?
A: 44 nM

Q: And the IC50 (A431 cells)?
A: 40 nM

Q: And the GI50 [2]?
A: 97 nM

Q: What about the GI50 [3] of the same compound?
A: 102 nM

Q: What about the GI50 [4] of the same compound?
A: 103 nM

Q: `C=CC(=O)Nc1cccc(N2C(=O)N(c3ccccc3)CCc3cnc(Nc4cn(C)nc4F)nc32)c1` [Compound 35, N-(3-(2-((3-fluoro-1-methyl-1H-pyrazol-4-yl)amino)-8-oxo-7-phenyl-5,6,7,8-tetrahydro-9H-pyrimido[4,5-d][1,3]diazepin-9-yl)phenyl)acrylamide] was tested. Which GI50 [1] did it give?
A: 1060 nM

Q: And the IC50 (A431 cells)?
A: > 10000 nM

Q: What about the GI50 [2] of the same compound?
A: 117 nM

Q: And the GI50 [3]?
A: 138 nM

Q: What about the GI50 [4] of the same compound?
A: 122 nM

Q: For `Cn1cc(Nc2ncc3c(n2)N(c2cccc(NC(=O)/C=C/CN4CCOCC4)c2)C(=O)N(Cc2ccccc2)CC3)c(Cl)n1` [Compound 10, (E)-N-(3-(7-benzyl-2-((3-chloro-1-methyl-1H-pyrazol-4-yl)amino)-8-oxo-5,6,7,8-tetrahydro-9H-pyrimido[4,5-d][1,3]diazepin-9-yl)phenyl)-4-morpholinobut-2-enamide], which GI50 [1] is on record?
A: 20 nM

Q: And the IC50 (A431 cells)?
A: 8 nM

Q: And the GI50 [2]?
A: 43 nM

Q: And the GI50 [3]?
A: 94 nM

Q: And the GI50 [4]?
A: 47 nM

Q: Which results are given for `C=CC(=O)Nc1cccc(N2C(=O)N(Cc3ccccc3)CCc3cnc(Nc4ccc(F)c(C)c4)nc32)c1` [Compound 9, N-(3-(7-benzyl-2-((4-fluoro-3-methylphenyl)amino)-8-oxo-5,6,7,8-tetrahydro-9H-pyrimido[4,5-d][1,3]diazepin-9-yl)phenyl)acrylamide]?
A: GI50 [1]: 28 nM; IC50 (A431 cells): 35 nM; GI50 [2]: 46 nM; GI50 [3]: 95 nM; GI50 [4]: 45 nM

Q: Which GI50 [1] does the source give for `C=CC(=O)Nc1cccc(N2C(=O)N(Cc3ccccc3)CCc3cnc(Nc4ccc(N5CCN(C)CC5)nc4)nc32)c1` [Compound 16, N-(3-(7-benzyl-2-((6-(4-methylpiperazin-1-yl)pyridin-3-yl)amino)-8-oxo-5,6,7,8-tetrahydro-9H-pyrimido[4,5-d][1,3]diazepin-9-yl)phenyl)acrylamide] here?
A: 25 nM

Q: What about the IC50 (A431 cells) of the same compound?
A: 9 nM

Q: What about the GI50 [2] of the same compound?
A: 25 nM

Q: What about the GI50 [3] of the same compound?
A: 32 nM

Q: What about the GI50 [4] of the same compound?
A: 39 nM

Q: Which GI50 [1] does the source give for `Cn1cc(Nc2ncc3c(n2)N(c2cccc(NC(=O)/C=C/CN4CCOCC4)c2)C(=O)N(c2ccccc2)CC3)c(Cl)n1` [Compound 32, (E)-N-(3-(2-((3-chloro-1-methyl-1H-pyrazol-4-yl)amino)-8-oxo-7-phenyl-5,6,7,8-tetrahydro-9H-pyrimido[4,5-d][1,3]diazepin-9-yl)phenyl)-4-morpholinobut-2-enamide] here?
A: 3280 nM

Q: What about the IC50 (A431 cells) of the same compound?
A: > 10000 nM

Q: And the GI50 [2]?
A: 1160 nM

Q: And the GI50 [4]?
A: 1360 nM

Q: Which results are given for `COC/C=C/C(=O)Nc1cccc(N2C(=O)N(c3ccccc3)CCc3cnc(Nc4cn(C)nc4Cl)nc32)c1` [Compound 46, (E)-N-(3-(2-((3-chloro-1-methyl-1H-pyrazol-4-yl)amino)-8-oxo-7-phenyl-5,6,7,8-tetrahydro-9H-pyrimido[4,5-d][1,3]diazepin-9-yl)phenyl)-4-methoxybut-2-enamide]?
A: GI50 [1]: 5950 nM; IC50 (A431 cells): > 10000 nM; GI50 [2]: 1130 nM; GI50 [4]: 2770 nM

Q: For `Cn1cc(Nc2ncc3c(n2)N(c2cccc(NC(=O)/C=C/CN4CCCCC4)c2)C(=O)N(c2ccccc2)CC3)c(Cl)n1` [Compound 40, (E)-N-(3-(2-((3-chloro-1-methyl-1H-pyrazol-4-yl)amino)-8-oxo-7-phenyl-5,6,7,8-tetrahydro-9H-pyrimido[4,5-d][1,3]diazepin-9-yl)phenyl)-4-(piperidin-1-yl)but-2-enamide], which GI50 [1] is on record?
A: 536 nM

Q: And the IC50 (A431 cells)?
A: > 10000 nM

Q: And the GI50 [2]?
A: 325 nM

Q: What about the GI50 [4] of the same compound?
A: 406 nM

Q: What does the source list for `COc1cc(N2CCN(C)CC2)ccc1Nc1ncc2c(n1)N(c1cccc(NC(=O)/C=C/CN(C)C)c1)C(=O)N(Cc1ccccc1)CC2` [Compound 15, (E)-N-(3-(7-benzyl-2-((2-methoxy-4-(4-methylpiperazin-1-yl)phenyl)amino)-8-oxo-5,6,7,8-tetrahydro-9H-pyrimido[4,5-d][1,3]diazepin-9-yl)phenyl)-4-(dimethylamino)but-2-enamide]?
A: GI50 [1]: 174 nM; IC50 (A431 cells): 6020 nM; GI50 [2]: 348 nM; GI50 [4]: 959 nM

Q: `C=CC(=O)Nc1cccc(N2C(=O)N(C3CC3)CCc3cnc(Nc4cn(C)nc4Cl)nc32)c1` [Compound 20, N-(3-(2-((3-chloro-1-methyl-1H-pyrazol-4-yl)amino)-7-cyclopropyl-8-oxo-5,6,7,8-tetrahydro-9H-pyrimido[4,5-d][1,3]diazepin-9-yl)phenyl)acrylamide] was tested. Which GI50 [1] did it give?
A: 895 nM

Q: And the IC50 (A431 cells)?
A: > 10000 nM

Q: And the GI50 [2]?
A: 225 nM

Q: What about the GI50 [4] of the same compound?
A: 320 nM

Q: How did the GI50 [1] turn out when `C/C=C/C(=O)Nc1cccc(N2C(=O)N(c3ccccc3)CCc3cnc(Nc4cn(C)nc4Cl)nc32)c1` [Compound 30, (E)-N-(3-(2-((3-chloro-1-methyl-1H-pyrazol-4-yl)amino)-8-oxo-7-phenyl-5,6,7,8-tetrahydro-9H-pyrimido[4,5-d][1,3]diazepin-9-yl)phenyl)but-2-enamide] was run?
A: 3320 nM

Q: And the IC50 (A431 cells)?
A: > 10000 nM

Q: And the GI50 [2]?
A: 993 nM

Q: What about the GI50 [4] of the same compound?
A: 1960 nM

Q: For `C/C=C/C(=O)Nc1cccc(N2C(=O)N(Cc3ccccc3)CCc3cnc(Nc4cn(C)nc4Cl)nc32)c1` [Compound 2, (E)-N-(3-(7-benzyl-2-((3-chloro-1-methyl-1H-pyrazol-4-yl)amino)-8-oxo-5,6,7,8-tetrahydro-9H-pyrimido[4,5-d][1,3]diazepin-9-yl)phenyl)but-2-enamide], which GI50 [1] is on record?
A: 243 nM

Q: What about the IC50 (A431 cells) of the same compound?
A: > 10000 nM

Q: And the GI50 [2]?
A: 261 nM

Q: What about the GI50 [4] of the same compound?
A: 249 nM

Q: How did the GI50 [1] turn out when `Cn1cc(Nc2ncc3c(n2)N(c2cccc(NC(=O)C(F)Cl)c2)C(=O)N(Cc2ccccc2)CC3)c(Cl)n1` (stereo not drawn) [Compound 24, N-(3-(7-benzyl-2-((3-chloro-1-methyl-1H-pyrazol-4-yl)amino)-8-oxo-5,6,7,8-tetrahydro-9H-pyrimido[4,5-d][1,3]diazepin-9-yl)phenyl)-2-chloro-2-fluoroacetamide] was run?
A: 2000 nM

Q: And the IC50 (A431 cells)?
A: > 10000 nM

Q: What about the GI50 [2] of the same compound?
A: 1150 nM

Q: And the GI50 [4]?
A: 1090 nM

Q: `CN(C)C/C=C/C(=O)Nc1cccc(N2C(=O)N(c3ccccc3)CCc3cnc(Nc4cn(C)nc4Cl)nc32)c1` [Compound 31, (E)-N-(3-(2-((3-chloro-1-methyl-1H-pyrazol-4-yl)amino)-8-oxo-7-phenyl-5,6,7,8-tetrahydro-9H-pyrimido[4,5-d][1,3]diazepin-9-yl)phenyl)-4-(dimethylamino)but-2-enamide] was tested. Which GI50 [1] did it give?
A: 2420 nM

Q: And the IC50 (A431 cells)?
A: > 10000 nM

Q: What about the GI50 [2] of the same compound?
A: 2040 nM

Q: And the GI50 [4]?
A: 3950 nM

Q: What does the source list for `CN(C)C/C=C/C(=O)Nc1cccc(N2C(=O)N(Cc3ccccc3)CCc3cnc(Nc4ccc(N5CCN(C)CC5)nc4)nc32)c1` [Compound 17, (E)-N-(3-(7-benzyl-2-((6-(4-methylpiperazin-1-yl)pyridin-3-yl)amino)-8-oxo-5,6,7,8-tetrahydro-9H-pyrimido[4,5-d][1,3]diazepin-9-yl)phenyl)-4-(dimethylamino)but-2-enamide]?
A: GI50 [1]: 793 nM; IC50 (A431 cells): > 10000 nM; GI50 [2]: 1130 nM; GI50 [4]: 2770 nM

Q: With `C=CC(=O)Nc1cccc(N2C(=O)N(Cc3ccccc3)CCc3cnc(NC4CCCC4)nc32)c1` [Compound 13, N-(3-(7-benzyl-2-(cyclopentylamino)-8-oxo-5,6,7,8-tetrahydro-9H-pyrimido[4,5-d][1,3]diazepin-9-yl)phenyl)acrylamide] as the compound, how does the GI50 [1] read?
A: 1030 nM

Q: What about the IC50 (A431 cells) of the same compound?
A: > 10000 nM

Q: And the GI50 [2]?
A: 848 nM

Q: And the GI50 [4]?
A: 1060 nM
